ChEMBL document CHEMBL3098026, “Synthesis and SAR of novel isoxazoles as potent c-jun N-terminal kinase (JNK) inhibitors” (Bioorg Med Chem Lett, 2014)

How the values were obtained:
[1] = Stability in human microsomes; assay type: ADME, Microsome
[2] = test system: Rattus norvegicus; assay: Oral bioavailability in Sprague-Dawley rat at 2 mg/kg; assay type: ADME, organism-based; details: in vivo
[3] = Cmax in Sprague-Dawley rat at 2 mg/kg, po; assay type: ADME, organism-based; design: dose 2 mg/kg, route oral; details: in vivo
[4] = AUC in Sprague-Dawley rat at 2 mg/kg, po; assay type: ADME, organism-based; design: dose 2 mg/kg, route oral; details: plasma
[5] = Volume of distribution in Sprague-Dawley rat at 1 mg/kg, iv and 2 mg/kg, po; assay type: ADME, organism-based; details: in vivo
[6] = Half life in Sprague-Dawley rat at 1 mg/kg, iv and 2 mg/kg, po; assay type: ADME, organism-based; details: in vivo
[7] = Plasma clearance in Sprague-Dawley rat at 1 mg/kg, iv and 2 mg/kg, po; assay type: ADME, organism-based

For `Oc1onc(-c2ccnc(Nc3ccc(N4CCOCC4)cc3)c2)c1-c1ccc(F)cc1`, which Stability [1] is on record?
Its Stability is “Unstable”.

Which results are given for `Cc1ncn(-c2ccc(Nc3cc(-c4nocc4-c4cn[nH]c4C)ccn3)cc2)n1`?
F [2]: 12%; Cmax [3]: 300 nM; AUC [4]: 0.7 µM·h; Vd [5]: 0.4 L/kg; half-life [6]: 1.8 h; clearance [7]: 13 mL/min/kg

For `Cc1ncn(-c2ccc(Nc3cc(-c4nocc4-c4cnn(C)c4)ccn3)cc2)n1`, which F [2] is on record?
Its F is 37%.

What about the Cmax [3] of the same molecule?
The Cmax was 1500 nM.

What about the AUC [4] of the same molecule?
The AUC was 5 µM·h.

And the Vd [5]?
The Vd was 0.4 L/kg.

What about the half-life [6] of the same molecule?
The half-life was 1.5 h.

And the clearance [7]?
The clearance was 6 mL/min/kg.
